Test results taken from patent EP0055702B1, “Antithrombotic treatment” (priority 1980, dated 1982).
Read-outs that look alike come from different tables or passages of the source.

Legend:
[1] = rabbits; cited from earlier work
[2] = tested on: blood coagulation time; settings: 10 mM; Kikugawa; cited from earlier work
[3] = tested on: human, rabbit and rat plasma; assay: PT (prothrombin time) in plasma in vitro, Example 3; type: biochemical; settings: for PT (seconds) Exp.2 A / PT (seconds) Exp. 1 A: active agent 0.5/ml, control; for prolongation of PT: 0.5 mg/ml, human, rabbit and rat plasma in vitro, dose-related
From the text: (§1) Sodium, potassium and ammonium bisulphites are found to prolong PT and PTT in a dose-related fashion.
(§2) The evaluation procedure used is that described in "Human Blood Coagulation, Haemostasis and Thrombosis", edited by Rosemary Biggs, published by Blackwell Scientific Publications, Oxford, England (2nd Edition), pages 670-705, 1976.

[4] = PT of coded and various agents, Example 6; type: biochemical
From the text: (§3) A variety of agents were coded and evaluated under a code designation. Among these compounds, thiouracil, mercaptosuccinic acid, thiosemicarbazide, phenothiazine and sodium thiosulphate were included, so as to compare sodium bisulphite with certain compounds mentioned in USP 4,148,855.
(§4) After determination of PT and PTT values, the coded compounds were decoded.
(§5) The results are shown in Table V, where mean values of 5 replications in each case are reported. […] This procedure was repeated with some additional compounds on two different days using a different control on each day.

[5] = PTT of coded and various agents, Example 6; type: biochemical; settings: for PTT: Table V, coded agents 0.5 mg/ml, Control 43.38
From the text: as §3, §4, §5

[6] = tested on: human, rabbit and rat plasma; assay: PTT (partial thromboplastin time) in plasma in vitro, Example 3; type: biochemical; settings: for prolongation of PTT: 0.5 mg/ml, human, rabbit and rat plasma in vitro, dose-related; for PTT (seconds) Exp. 1 A / PTT (seconds) Exp. 2 A: active agent 0.5/ml, control
From the text: as §1, §2

[7] = tested on: celite-fibrinogen suspension; settings: Chao, cited from earlier work
[8] = tested on: platelet-fibrinogen preparations; settings: 10 to 50 mM; Chao; cited from earlier work
[9] = tested on: dog plasma; settings: 10 mM, Elias; cited from earlier work
[10] = tested on: thrombin; settings: Elias; cited from earlier work
[11] = coded compounds after decoding, in vitro
[12] = Table V, coded agents 0.5 mg/ml, Control 12.92

## sodium bisulphite/sulphite
[1]
  LD50: 65 mg/kg
[2]
  effect on blood coagulation time: no effect

## O=S([O-])S(=O)(=O)[O-].[K+].[K+] [Potassium metabisulphite]
[3]; Test sequence A
  PT (seconds) Exp.2 A: 22.0 s

## O=S(=O)(O)CO [SO3, Sodium formaldehyde bisulphite, reference compound]
[4]; [11]
  effect on PT values: effected in increasing PT and PTT values
[5]; [11]
  effect on PTT values: effected in increasing PT and PTT values

## ammonium bisulphite
[3]
  prolongation of PT: significantly prolong
[6]
  prolongation of PTT: significantly prolong

## Ammonium sulphite
[3]; Test sequence A
  PT (seconds) Exp. 1 A: 14.7 s
  PT (seconds) Exp.2 A: 16.9 s
[6]; Test sequence A
  PTT (seconds) Exp. 1 A: 56.5 s
  PTT (seconds) Exp. 2 A: 65.2 s
[4]
  PT: 16.08 s

## Sodium sulphite
[3]; Test sequence A
  PT (seconds) Exp. 1 A: 16.2 s
  PT (seconds) Exp.2 A: 17.7 s
[3]; Test sequence B
  PT (seconds) Exp. 1 A: 16.8 s
  PT (seconds) Exp.2 A: 17.7 s
[6]; Test sequence A
  PTT (seconds) Exp. 1 A: 66.1 s
  PTT (seconds) Exp. 2 A: 80.7 s
[6]; Test sequence B
  PTT (seconds) Exp. 1 A: 74.8 s
  PTT (seconds) Exp. 2 A: 82.1 s
[4]
  PT: 16.38 s
[4]; [12]
  PT: 16.14 s
[5]
  PTT: 64.62 s
[7]; 10 mM
  inhibition of thrombin-induced light transmission increase (LTI): partial inhibition
[7]; 50 mM
  inhibition of thrombin-induced light transmission increase (LTI): complete inhibition
[8]
  effect on the first wave of platelet-fibrinogen preparations: no effect
[9]
  increase of thrombin time: about 38%
[10]
  inhibitory effect on TAME esterolytic activity of thrombin: No inhibitory effect

## O=S([O-])S(=O)(=O)[O-].[Na+].[Na+] [Sodium metabisulphite]
[6]; Test sequence A
  PTT (seconds) Exp. 2 A: 80.3 s

## Dihydroxymalcic acid 2 H2O [Solution A3, reference compound]
[4]; [12]
  PT: 14.95 s
[5]
  PTT: 53.00 s

## potassium bisulphite
[3]
  prolongation of PT: significantly prolong
[6]
  prolongation of PTT: significantly prolong

## Sodium thiosulphate [SI6, reference compound]
[4]
  PT: 13.5 s
